Several values for one entry are separate records, joined by “and”; a condition that tells them apart may be missing. Equal entries are not always repeated. Toxic doses and inconclusive results are not listed.
Test system: BDF1 mice, B16 melanoma ip, median survival T/C
Experiment: NCI In Vivo Anticancer Drug Screen. Data for tumor model B16 Melanoma (intraperitoneal) in B6D2F1 (BDF1) mice
Details: endpoint: median survival time, higher = longer survival
In short: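 In this screen, activity was judged from survival or tumor size in treated versus vehicle-treated tumor-bearing mice, reported as T/C.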

[1] = dose: 25.0 mg/kg/injection, schedule: Q01DX009 (ip), vehicle: saline
[2] = dose: 50.0 mg/kg/injection, schedule: Q01DX009 (ip), vehicle: saline
[3] = dose: 100.0 mg/kg/injection, schedule: Q01DX009 (ip), vehicle: saline
[4] = dose: 12.5 mg/kg/injection, schedule: Q01DX009 (ip), vehicle: Klucel (hydroxypropylcellulose) (HPC)
[5] = dose: 25.0 mg/kg/injection, schedule: Q01DX009 (ip), vehicle: Klucel (hydroxypropylcellulose) (HPC)
[6] = dose: 6.25 mg/kg/injection, schedule: Q01DX009 (ip), vehicle: Klucel (hydroxypropylcellulose) (HPC)
[7] = dose: 100.0 mg/kg/injection, schedule: Q01DX009 (ip), vehicle: Klucel (hydroxypropylcellulose) (HPC)
[8] = dose: 200.0 mg/kg/injection, schedule: Q01DX009 (ip), vehicle: Klucel (hydroxypropylcellulose) (HPC)
[9] = dose: 400.0 mg/kg/injection, schedule: Q01DX009 (ip), vehicle: Klucel (hydroxypropylcellulose) (HPC)
[10] = dose: 50.0 mg/kg/injection, schedule: Q01DX009 (ip), vehicle: Klucel (hydroxypropylcellulose) (HPC)
[11] = dose: 25.0 mg/kg/injection, schedule: Q01DX009 (ip), vehicle: saline with Tween-80
[12] = dose: 50.0 mg/kg/injection, schedule: Q01DX009 (ip), vehicle: saline with Tween-80
[13] = dose: 100.0 mg/kg/injection, schedule: Q01DX009 (ip), vehicle: saline with Tween-80
[14] = dose: 100.0 mg/kg/injection, schedule: Q04DX003 (ip), vehicle: Klucel (hydroxypropylcellulose) (HPC)

Cc1[nH]c(=O)[nH]c(=O)c1N(CCF)CCCl
T/C (dose: 1.8 mg/kg/injection, schedule: Q01DX009 (ip), vehicle: saline with Tween-80): 110 % of control | T/C (dose: 3.0 mg/kg/injection, schedule: Q01DX009 (ip), vehicle: saline with Tween-80): 110 % of control | T/C (dose: 5.0 mg/kg/injection, schedule: Q01DX009 (ip), vehicle: Klucel (hydroxypropylcellulose) (HPC)): 100 % of control | T/C (dose: 8.0 mg/kg/injection, schedule: Q01DX009 (ip), vehicle: acid diluted with saline): 123 % of control | T/C (dose: 14.0 mg/kg/injection, schedule: Q01DX009 (ip), vehicle: saline with Tween-80): 165 % of control | T/C (dose: 16.0 mg/kg/injection, schedule: Q01DX009 (ip), vehicle: saline with Tween-80): 121 % of control | T/C (dose: 16.0 mg/kg/injection, schedule: Q04DX003 (ip), vehicle: acid diluted with saline): 107 % of control | T/C (dose: 16.0 mg/kg/injection, schedule: Q04DX003 (ip), vehicle: saline with Tween-80): 123 % of control | T/C (dose: 32.0 mg/kg/injection, schedule: Q04DX003 (ip), vehicle: acid diluted with saline): 118 % of control | T/C (dose: 32.0 mg/kg/injection, schedule: Q04DX003 (ip), vehicle: saline with Tween-80): 180 % of control

C=C1C(=O)O[C@H]2C1[C@H](OC(=O)/C(C)=C\COC(C)=O)C[C@]1(CO1)[C@@H]1[C@H](O)[C@H]3O[C@@]3(C)[C@@H]12 (some centres not stated)
T/C (dose: 3.12 mg/kg/injection, schedule: Q01DX009 (ip), vehicle: other): 112 % of control | T/C (dose: 6.25 mg/kg/injection, schedule: Q01DX009 (ip), vehicle: other): 104 % of control | T/C (dose: 12.5 mg/kg/injection, schedule: Q01DX009 (ip), vehicle: other): 107 % of control | T/C (dose: 25.0 mg/kg/injection, schedule: Q01DX009 (ip), vehicle: other): 106 % of control | T/C (dose: 50.0 mg/kg/injection, schedule: Q01DX009 (ip), vehicle: other): 109 % of control

CC(=O)Oc1cc2c3c(c1)CCCN3CCC2
T/C (dose: 3.13 mg/kg/injection, schedule: Q01DX009 (ip), vehicle: saline with Tween-80): 90 % of control | T/C (dose: 6.25 mg/kg/injection, schedule: Q01DX009 (ip), vehicle: saline with Tween-80): 90 % of control | T/C (dose: 15.0 micrograms/kg/injection, schedule: Q01DX009 (ip), vehicle: saline): 104 % of control | T/C (dose: 30.0 micrograms/kg/injection, schedule: Q01DX009 (ip), vehicle: saline): 97 % of control | T/C (dose: 60.0 micrograms/kg/injection, schedule: Q01DX009 (ip), vehicle: saline): 93 % of control | T/C (dose: 250.0 micrograms/kg/injection, schedule: Q01DX009 (ip), vehicle: saline with Tween-80): 86 % of control | T/C (dose: 500.0 micrograms/kg/injection, schedule: Q01DX009 (ip), vehicle: saline with Tween-80): 86 % of control

C(COCC1CO1)OCC1CO1 (configuration not stated)
T/C [1]: 91 % of control | T/C [2]: 113 % of control | T/C [3]: 119 % of control

COc1ccc(/C=C2\C(=O)OC(=O)\C2=C\c2ccc(OC)c(OC)c2)cc1OC
T/C [4]: 98 % of control | T/C [5]: 90 % of control

CC12CCC(OC3OC(CO)C(OC4OC(CO)C(O)C(O)C4O)C(O)C3O)CC1CCC1C2CCC2(C)C(C3=CC(=O)OC3)CCC12O (configuration not stated)
T/C (dose: 6.0 mg/kg/injection, schedule: Q01DX009 (ip), vehicle: saline): 102 % of control | T/C (dose: 12.0 mg/kg/injection, schedule: Q01DX009 (ip), vehicle: saline): 114 % of control | T/C (dose: 24.0 mg/kg/injection, schedule: Q01DX009 (ip), vehicle: saline): 102 % of control | T/C (dose: 48.0 mg/kg/injection, schedule: Q01DX009 (ip), vehicle: saline): 92 % of control

CCCC(C(=O)OCCN(CC)CC)(c1ccccc1)c1ccccc1
T/C (dose: 3.12 mg/kg/injection, schedule: Q01DX009 (ip), vehicle: saline): 95 % of control | T/C (dose: 6.25 mg/kg/injection, schedule: Q01DX009 (ip), vehicle: saline): 102 % of control | T/C (dose: 12.5 mg/kg/injection, schedule: Q01DX009 (ip), vehicle: saline): 100 % of control | T/C [1]: 97 % of control

Cc1cccc(C)c1N.[C-]#[O+].[C-]#[O+].[C-]#[O+].[Cr]
T/C [6]: 103 % of control | T/C [4]: 100 % of control | T/C [5]: 100 % of control and 112 % of control

Cc1ccc([N+](=O)[O-])c(C)c1
T/C [7]: 94 % of control | T/C [8]: 102 % of control | T/C [9]: 94 % of control

COc1cc(C(=O)N2CCOCC2)cc(OC)c1OC
T/C [5]: 110 % of control | T/C [10]: 102 % of control | T/C [7]: 92 % of control | T/C [8]: 97 % of control | T/C [9]: 102 % of control

C[NH-].C[NH-].O=C(O)CC(=O)O.[Pt+2]
T/C (dose: 50.0 mg/kg/injection, schedule: Q04DX003 (ip), vehicle: saline): 108 % of control | T/C (dose: 100.0 mg/kg/injection, schedule: Q04DX003 (ip), vehicle: saline): 162 % of control | T/C (dose: 200.0 mg/kg/injection, schedule: Q04DX003 (ip), vehicle: saline): 165 % of control

CC(C)NC(=O)N(c1ccccc1)C(C)C
T/C [10]: 105 % of control | T/C [7]: 103 % of control

COc1cc2cc(c1Cl)N(C)C(=O)CC(OC(=O)C(C)N(C)C(=O)C(C)C)C1(C)OC1C(C)C1CC(O)(NC(=O)O1)C(OC)/C=C/C=C(C)C2 (configuration not stated)
T/C (dose: 5.0 micrograms/kg/injection, schedule: Q01DX009 (ip), vehicle: saline + alcohol): 171 % of control | T/C (dose: 10.0 micrograms/kg/injection, schedule: Q01DX009 (ip), vehicle: saline + alcohol): 177 % of control

Cc1c2ccnc(-c3ccccc3)c2cc2c1[nH]c1ccccc12
T/C [11]: 115 % of control | T/C [12]: 104 % of control | T/C [13]: 94 % of control and 96 % of control

CSc1nc(C)cc(Cl)n1
T/C [12]: 104 % of control | T/C [13]: 113 % of control | T/C (dose: 200.0 mg/kg/injection, schedule: Q01DX009 (ip), vehicle: saline with Tween-80): 90 % of control

O=C(CN1CC1)NCCCCCCCCNC(=O)CN1CC1
T/C [6]: 124 % of control | T/C [5]: 93 % of control

O=C(CCCN1CCC(n2c(=O)[nH]c3ccccc32)CC1)c1ccc(F)cc1
T/C (dose: 0.78 mg/kg/injection, schedule: Q01DX009 (ip), vehicle: Klucel (hydroxypropylcellulose) (HPC)): 121 % of control | T/C (dose: 3.12 mg/kg/injection, schedule: Q01DX009 (ip), vehicle: Klucel (hydroxypropylcellulose) (HPC)): 86 % of control | T/C [6]: 92 % of control | T/C [4]: 89 % of control | T/C [5]: 89 % of control and 94 % of control

C=CCNC(=S)Nc1cc(Cl)ccc1C
T/C (dose: 50.0 mg/kg/injection, schedule: Q04DX003 (ip), vehicle: Klucel (hydroxypropylcellulose) (HPC)): 103 % of control | T/C [14]: 100 % of control

Cc1cc([N+](=O)[O-])cc(C)c1OC(=O)c1ccc(N=C(N)N)cc1
T/C [4]: 98 % of control | T/C [5]: 97 % of control | T/C [10]: 90 % of control

CCCS(=O)[O-].CCCS(=O)[O-].[Zn+2]
T/C (dose: 0.05 mg/kg/injection, schedule: Q01DX009 (ip), vehicle: saline): 106 % of control | T/C (dose: 0.1 mg/kg/injection, schedule: Q01DX009 (ip), vehicle: saline): 91 % of control | T/C (dose: 0.2 mg/kg/injection, schedule: Q01DX009 (ip), vehicle: saline): 103 % of control | T/C (dose: 0.4 mg/kg/injection, schedule: Q01DX009 (ip), vehicle: saline): 101 % of control | T/C (dose: 0.8 mg/kg/injection, schedule: Q01DX009 (ip), vehicle: saline): 96 % of control | T/C (dose: 1.6 mg/kg/injection, schedule: Q01DX009 (ip), vehicle: saline): 100 % of control | T/C (dose: 3.2 mg/kg/injection, schedule: Q01DX009 (ip), vehicle: saline): 95 % of control | T/C (dose: 6.4 mg/kg/injection, schedule: Q01DX009 (ip), vehicle: saline): 103 % of control | T/C (dose: 12.8 mg/kg/injection, schedule: Q01DX009 (ip), vehicle: saline): 101 % of control

CC(C)NNC(=O)C(N)CO (configuration not stated)
T/C [1]: 104 % of control | T/C [2]: 116 % of control | T/C [3]: 104 % of control | T/C (dose: 200.0 mg/kg/injection, schedule: Q01DX009 (ip), vehicle: saline): 111 % of control

O=C(Nc1ccccc1F)c1ccc(Cl)c(Cl)c1
T/C [10]: 100 % of control | T/C [7]: 87 % of control | T/C [8]: 90 % of control | T/C [9]: 94 % of control

CCOC1CCC2C(CCC(/C=C/c3ccc(O)c4ncccc34)N2C)C1 (configuration not stated)
T/C [11]: 111 % of control

c1ccc(CN=C(c2ccccc2)c2ccccc2)cc1
T/C [14]: 100 % of control | T/C (dose: 200.0 mg/kg/injection, schedule: Q04DX003 (ip), vehicle: Klucel (hydroxypropylcellulose) (HPC)): 95 % of control | T/C (dose: 400.0 mg/kg/injection, schedule: Q04DX003 (ip), vehicle: Klucel (hydroxypropylcellulose) (HPC)): 100 % of control
